For test [1], the target named is T1, human adenosine A1 receptor (Homo sapiens, UniProt P30542).
T1 construct: expressed in transfected cells; host or cells: HEK293 cells infected with BacMam (the same paragraph also labels the preparation CHO-hA1)
T1 sequence (P30542 1-326): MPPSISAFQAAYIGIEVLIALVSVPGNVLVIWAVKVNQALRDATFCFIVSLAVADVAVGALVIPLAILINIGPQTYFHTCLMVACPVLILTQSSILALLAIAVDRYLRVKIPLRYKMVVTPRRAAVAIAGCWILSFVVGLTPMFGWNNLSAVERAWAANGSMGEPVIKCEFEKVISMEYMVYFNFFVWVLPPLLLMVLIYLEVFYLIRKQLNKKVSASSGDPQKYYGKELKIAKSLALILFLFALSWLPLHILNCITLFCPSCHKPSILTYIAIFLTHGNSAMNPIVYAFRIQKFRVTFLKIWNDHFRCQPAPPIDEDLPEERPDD
In words: Inhibition binding assay, human adenosine A1 receptor membranes, [3H]DPCPX. The conditions noted are these: 1 nM [3H]DPCPX, 25° C., 1 h; IC50 converted to Ki with Cheng-Prusoff; read-out: A1 pKi (converted). The gist of the method:
(§1)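 Membranes from BacMam-infected HEK293 cells (0.2 μg A2A, 1.4 μg A1) incubated 1 h at 25° C with test compound and 1 nM [3H]ZM241385 (A2A; 50 mM Tris-HCl pH 7.4) or [3H]DPCPX (A1; plus 100 mM NaCl, 10 mM MgCl2). Nonspecific: 1 μM CGS15943 or DPCPX. Filtration, scintillation; IC50 converted to Ki via Cheng-Prusoff.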

The target of test [2] is T2, human adenosine A2A receptor (Homo sapiens, UniProt P29274).
T2 construct: expressed in transfected cells; host or cells: HEK293 cells infected with BacMam
T2 sequence (P29274 whole entry): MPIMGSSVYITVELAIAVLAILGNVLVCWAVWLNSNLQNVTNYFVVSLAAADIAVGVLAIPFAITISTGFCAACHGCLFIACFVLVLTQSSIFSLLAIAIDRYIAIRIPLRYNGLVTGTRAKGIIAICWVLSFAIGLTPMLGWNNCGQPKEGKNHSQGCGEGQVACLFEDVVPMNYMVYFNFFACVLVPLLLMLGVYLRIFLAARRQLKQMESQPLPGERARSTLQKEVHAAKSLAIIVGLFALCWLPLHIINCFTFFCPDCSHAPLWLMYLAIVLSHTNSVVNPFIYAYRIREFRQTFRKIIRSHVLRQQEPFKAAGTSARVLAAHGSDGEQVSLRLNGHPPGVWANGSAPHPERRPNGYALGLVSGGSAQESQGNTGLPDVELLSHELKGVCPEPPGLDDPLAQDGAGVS
In words: Inhibition binding assay, human adenosine A2A receptor membranes, [3H]ZM241385. The conditions noted are these: 1 nM [3H]ZM241385, HEK293-hA2A membranes, 25° C., 1 h; IC50 converted to Ki with Cheng-Prusoff; read-out: A2A pKi (converted). The gist of the method:
as §1

Test [3] has as its target T3, human CB-1 cannabinoid receptor (Homo sapiens, UniProt P21554).
T3 construct: expressed in transfected cells; host or cells: CHO cells
The test is described as follows: CB1 receptor radioligand binding assay, [3H]CP 55940, transfected CHO cell membranes. The conditions noted are these: 0.5 nM [3H]CP 55940, CHO membrane homogenates, 120 min at 37° C. The procedure: Nonspecific binding is determined in the presence of 10 μM WIN 55212-2.
Following incubation, the samples are filtered rapidly under vacuum through glass fiber filters (GF/B, Packard) presoaked with 0.3% PEI and rinsed several times with an ice-cold buffer containing 50 mM Tris-HCl (pH 7.4) and 0.5% BSA using a 96-sample cell harvester (Unifilter, Packard). The filters are dried then counted for radioactivity in a scintillation counter (Topcount, Packard) using a scintillation cocktail (Microscint 0, Packard).
The standard reference compound is CP 55940 which is tested in each experiment at several concentrations to obtain a competition curve from which its IC50 is calculated.

The next test has as its target T4, human CB1 receptor (Homo sapiens, UniProt P21554).
T4 construct: expressed in transfected cells; host or cells: CHO cells
In words: CB1 receptor antagonism, agonist-induced cAMP modulation (HTRF) in transfected CHO cells. Format: cell-based. The conditions noted are these: read-out: Antag IC50. On the technique in general: In TR-FRET formats the signal depends on donor and acceptor labels being close together.

T4 sequence (P21554 whole entry): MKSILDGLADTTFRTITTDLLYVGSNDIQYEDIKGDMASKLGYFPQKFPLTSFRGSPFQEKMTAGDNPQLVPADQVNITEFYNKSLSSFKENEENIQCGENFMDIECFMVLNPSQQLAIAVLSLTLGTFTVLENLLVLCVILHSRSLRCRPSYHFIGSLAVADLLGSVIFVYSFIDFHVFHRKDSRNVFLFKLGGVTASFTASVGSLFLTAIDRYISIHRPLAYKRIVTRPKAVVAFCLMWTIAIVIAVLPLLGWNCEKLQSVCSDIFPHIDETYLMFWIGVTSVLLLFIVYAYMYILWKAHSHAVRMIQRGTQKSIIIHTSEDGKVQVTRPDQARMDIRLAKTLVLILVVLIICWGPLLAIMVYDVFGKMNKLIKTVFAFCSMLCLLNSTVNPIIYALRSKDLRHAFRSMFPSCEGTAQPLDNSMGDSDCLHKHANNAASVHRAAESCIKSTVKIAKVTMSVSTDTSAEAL
T3 sequence (P21554 whole entry): as above

For the compound `Cc1ccc(Cn2nc3c(-c4cc(C)nc(CO)c4)c(-c4ccccc4)nc(N)n3c2=O)nc1` [Example 1-52, 5-amino-8-[2-(hydroxymethyl)-6-methyl-4-pyridyl]-2-[(5-methyl-2-pyridyl)methyl]-7-phenyl-[1,2,4]triazolo[4,3-c]pyrimidin-3-one], the Ki was 501 nM in test [1], 0.631 nM in test [2] and 46.1 µM in test [3]. In addition, the IC50 (commonly the midpoint of a concentration-inhibition curve) at human CB1 receptor turned out to be 39.4 µM.

For `COc1ncccc1Cn1nc2c(-c3cc(C)nc(CO)c3)c(-c3ccccc3)nc(N)n2c1=O` [Example 1-57, 5-amino-8-[2-(hydroxymethyl)-6-methyl-4-pyridyl]-2-[(2-methoxy-3-pyridyl)methyl]-7-phenyl-[1,2,4]triazolo[4,3-c]pyrimidin-3-one], the Ki in test [1] was 126 nM; in test [2] it was 0.631 nM; in test [3] it was 62.6 µM. Moreover, the IC50 on human CB1 receptor was more than 100 µM.

Source of the values: patent publication US12528815B2, “5-amino-8-(4-pyridyl)-[1,2,4]triazolo[4,3-c]pyrimidin-3-one compounds for use against cancer” (Nxera Pharma UK Limited, priority 2020, dated 2026).
